{"source": "patent US5369103A", "about": "“Piperazine derivatives” (John Wyeth & Brother, Limited, priority 1990, dated 1994)", "key": {"5HT1A receptor [1]": {"target": "T1, 5HT1A receptor (Rattus norvegicus, UniProt P19327)", "T1 construct": "rat hippocampal membrane homogenate; from tissue; host or cells: rat hippocampus, membrane homogenate", "T1 sequence (P19327 1-422)": "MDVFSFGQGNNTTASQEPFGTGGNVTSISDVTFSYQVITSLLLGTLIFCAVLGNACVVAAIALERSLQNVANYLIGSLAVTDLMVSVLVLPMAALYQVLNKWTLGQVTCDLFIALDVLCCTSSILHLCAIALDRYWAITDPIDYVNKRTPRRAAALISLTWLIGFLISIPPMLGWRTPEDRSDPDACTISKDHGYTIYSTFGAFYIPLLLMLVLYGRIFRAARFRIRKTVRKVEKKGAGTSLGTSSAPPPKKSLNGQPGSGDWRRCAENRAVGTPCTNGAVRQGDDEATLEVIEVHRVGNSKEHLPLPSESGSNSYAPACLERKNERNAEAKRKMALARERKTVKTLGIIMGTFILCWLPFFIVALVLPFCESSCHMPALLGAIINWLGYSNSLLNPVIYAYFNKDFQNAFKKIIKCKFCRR", "experiment": "5HT1A receptor binding activity in rat hippocampal membrane homogenate", "conditions": "read-out: 1C50", "experimental": "The compounds of the invention were tested for 5HT1A receptor binding activity in rat hippocampal membrane homogenate by the method of B. S. Alexander and M. D. Wood, J Pharm Pharmacol, 1988, 40,888-891. The results for representative compounds of the invention are given below"}, "α1 sites": {"tested_on": "α1 sites", "experiment": "affinity for α1 sites", "format": "binding", "conditions": "read-out: 1C50"}, "5HT1A receptor [2]": {"target": "T2, 5HT1A receptor (Cavia porcellus, UniProt A0A286Y074)", "T2 construct": "guinea-pig ileum in vitro; from tissue; host or cells: guinea-pig ileum", "T2 sequence (A0A286Y074 1-421)": "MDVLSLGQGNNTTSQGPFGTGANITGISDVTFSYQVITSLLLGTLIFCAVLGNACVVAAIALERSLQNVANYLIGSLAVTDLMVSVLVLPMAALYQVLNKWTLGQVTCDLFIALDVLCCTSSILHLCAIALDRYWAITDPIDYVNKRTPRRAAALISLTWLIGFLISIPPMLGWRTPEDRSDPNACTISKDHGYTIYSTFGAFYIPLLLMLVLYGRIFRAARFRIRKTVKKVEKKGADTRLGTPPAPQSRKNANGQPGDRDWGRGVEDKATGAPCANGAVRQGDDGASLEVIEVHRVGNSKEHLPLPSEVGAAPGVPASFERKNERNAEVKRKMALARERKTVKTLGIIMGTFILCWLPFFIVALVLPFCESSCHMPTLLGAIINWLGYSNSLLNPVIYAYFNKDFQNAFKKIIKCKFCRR", "experiment": "5HT1A receptor antagonism: antagonism of 5-carboxamidotryptamine in the guinea-pig ileum in vitro", "format": "cell-based", "conditions": "read-out: pA2 (converted)", "experimental": "The compounds are tested for 5HT1A receptor antagonism activity in a test involving the antagonism of 5-carboxamidotryptamine in the guinea-pig ileum in vitro (based upon the procedure of Fozard et al, Br J Pharmac, 1985, 86, 601P)."}}, "note": "pIC50: −log10 of the molar value."}
{"smiles": "COc1ccccc1N1CCN(C/C(=C/C(=O)N2CCCCCC2)c2ccccc2)CC1", "note": "[Example 3 (E-isomer), 2,3,4,5,6,7-Hexahydro-1-[4-(4-(2-methoxyphenyl)piperazin-1-yl)-3-phenylbut-2-enoyl]-1H-azepine]", "values": [{"measurement": "pIC50", "setting": "5HT1A receptor [1]", "value": 8.05}, {"measurement": "pIC50", "setting": "α1 sites", "value": 5.67}]}
{"smiles": "COc1ccccc1N1CCN(CC(CC(=O)N2CCCCCC2)c2ccccc2)CC1", "note": "(centres unmarked) [Example 6, 2,3,4,5,6,7-Hexahydro-1-[4-(4-(2-methoxyphenyl)piperazin-1-yl)-3-phenylbutanoyl]-1H-azepine]", "values": [{"measurement": "pIC50", "setting": "5HT1A receptor [1]", "value": 8.86}, {"measurement": "pIC50", "setting": "α1 sites", "value": 6.17}, {"measurement": "Kb", "setting": "5HT1A receptor [2]", "value": 0.794, "unit": "nM"}]}
